Experimental data published in patent publication US6858748B1, “Treatment of colon cancer” (Research Foundation of the University of Central Florida, priority 2001, dated 2005).

Key:
[1] = system: human colon cancer cells (ATCC CCL220); experiment: Cytotoxicity assay (MTS/PMS growth inhibition); type: cell-based; conditions: approximately 48 hours with test compound, MTS/PMS readout, concentration not given
Method: The antitumor activity against human colon cancer cells of the novel compounds (as earlier reported) was realized by the following procedure which determines the inhibitory effect of test samples on the growth of human colon cancer cells (ATCC CCL220). The CCL220 cells are grown in RPMI 1640 media+10% Fetal bovine serum+1% Antibiotic/Antimycotic for approximately 48 hours at 37° C./5% CO2 in the presence of the test compound.
Growth/Non-Growth of the cells (e.g., cell density) is determined using Promega's MTS/PMS assay system. MTS (3-(4,5-dimethylthiazol-2-yl)-5-(3-carboxymethoxyphenyl)-2-(4-sulfophenyl)-2H-tetrazolium, inner salt) is an aqueous compound that is reduced to soluble formazan by the presence of NADH formed by dehydrogenases present within the CCL220 cells. The absorbance of the formazan can be measured at 490 nm and is directly proportional to the number of living cells present in the culture. PMS (Phenazine Methosulfate) is added an electron coupling reagent and greatly increases the rate of reduction. […]
In order to establish the accuracy of this assay a Positive Control consisting of 50 μM Methotrexate should not decrease the net absorbance to less than 90% of the Negative Control (CCL220 cells are somewhat resistant to methotrexate) is utilized.

white mice = experiment: Animal toxicity bioassay (acute toxicity, intraperitoneal); type: in vivo; conditions: 14 days observation, Litchfield and Wilkinson
Method: Acute toxicity was studied on white mice of both sexes with weight ranging between 18-26 grams under intraperitoneal injection of 2% solution of tested compound in starch (the compound was dissolved in starch slime and injected) on the basis of 0.1 ml of solution per 10 g of the animal weight Each dose was tested on the group of 6 animals that were observed during 14 days period. (This method was approved by the Pharmacology committee of Russian Ministry of Health and has been widely used since 1968.) Averaged lethal dose (LD50) of the compound was computed using results of experiments on 5-7 groups of animals using method of Litchfield and Wilkinson. (Belenkii M. L. “Elements of quantative determination of the pharmacological effect,” Leningrad, 1963, 71 pages).

Mice = conditions: cited from earlier work
[2] = Solubility in organic solvents; type: physicochemical
Stability in solution = type: physicochemical; conditions: decomposes quickly when solution is heated or stored for a long time, forming OF-12

Structure (SMILES)	percent activity against human colon cancer [1] [%]	LD50 (white mice) [mg/kg]	IPN-Mice LD50 (Mice) [mg/kg]	Solubility ([2]; DMSO, DMFA, dichloroethane, acetonitrile)	Solubility ([2]; hexane)	Stability in solutions (Stability in solution)
CCOc1ccc(C(Cl)=CC(=NN=C2c3ccccc3-c3ccccc32)C(=O)OC)cc1 [3F-19, 4-Chloro-4-(4-ethoxy-phenyl)-2-(fluoren-9-ylidene-hydrazono)-but-3-enoic acid methyl ester]	100	> 200	–	–	–	–
O=c1[nH]cc(F)c(=O)[nH]1 [5-FU, fluorouracil]	–	–	230	–	–	–
CCOc1ccc(C(=O)CC(O)(NN=C2c3ccccc3-c3ccccc32)C(=O)OC)cc1 (centres unmarked) [OF-13, 4-(4-Ethoxy-phenyl)-2-(N′-fluoren-9-ylidene-hydrazino)-2-hydroxy-4-oxo-butyric acid methyl ester]	100	> 1500	–	highly soluble	insoluble	not stable in solutions
